# Measurements published in patent US10874743B2, “IRAK degraders and uses thereof” (Kymera Therapeutics, Inc., priority 2017, dated 2020).
# Experiments:
# IRAK4 [1] = target: T1, IRAK4 (Homo sapiens, UniProt Q9NWZ3); test: OCI-LY-10 degradation assay (western blot, % IRAK4 degraded after 4 hours); format: cell-based; design: endogenous in cells; host or cells: OCI-LY10; conditions: OCI-LY10 cells, IRAK4 degraded after 4 hours, western blot
# T1 sequence (Q9NWZ3 1-460): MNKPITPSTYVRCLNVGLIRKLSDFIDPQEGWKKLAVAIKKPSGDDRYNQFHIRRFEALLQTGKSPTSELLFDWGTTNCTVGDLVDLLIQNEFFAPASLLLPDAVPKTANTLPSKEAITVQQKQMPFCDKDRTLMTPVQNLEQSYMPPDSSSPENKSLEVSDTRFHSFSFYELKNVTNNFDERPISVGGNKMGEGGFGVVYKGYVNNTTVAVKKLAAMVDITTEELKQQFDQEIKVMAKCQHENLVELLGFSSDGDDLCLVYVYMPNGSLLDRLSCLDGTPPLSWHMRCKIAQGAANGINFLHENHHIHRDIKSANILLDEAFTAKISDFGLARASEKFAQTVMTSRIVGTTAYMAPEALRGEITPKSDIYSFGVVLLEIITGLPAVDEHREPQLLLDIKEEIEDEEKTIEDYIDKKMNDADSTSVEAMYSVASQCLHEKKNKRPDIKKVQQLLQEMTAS
# In short: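 OCI-LY10 cells (RPMI-1640, 20% FBS, 55 μM 2-ME) treated with compound at 0.003-10 μM final for 4 h at 37° C, then lysed in RIPA buffer. IRAK4 level read by fluorescent western blot (20-25 μg protein) and binned as % degraded: A >50%, B >20-50%, C <20%.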
# [2] = target: CRBN-DDB1 / GST-IRAK4 ternary complex (Homo sapiens, UniProt Q96SW2+Q9NWZ3); test: AlphaLISA assay to determine ternary complex formation; format: binding
# Chain of CRBN-DDB1 / GST-IRAK4 ternary complex (Q96SW2 whole entry, one chain of several): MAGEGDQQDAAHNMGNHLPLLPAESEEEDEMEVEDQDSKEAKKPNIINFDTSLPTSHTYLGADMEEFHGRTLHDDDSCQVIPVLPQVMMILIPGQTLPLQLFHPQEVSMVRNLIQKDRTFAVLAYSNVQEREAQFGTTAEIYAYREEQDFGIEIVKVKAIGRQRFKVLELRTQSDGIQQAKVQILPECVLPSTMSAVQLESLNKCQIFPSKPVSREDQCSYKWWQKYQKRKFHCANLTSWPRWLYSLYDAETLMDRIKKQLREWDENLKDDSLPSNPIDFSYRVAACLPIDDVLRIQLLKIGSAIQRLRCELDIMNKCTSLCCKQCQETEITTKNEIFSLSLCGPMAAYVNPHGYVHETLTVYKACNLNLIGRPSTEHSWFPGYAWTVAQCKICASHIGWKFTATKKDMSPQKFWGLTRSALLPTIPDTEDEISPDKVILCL
# Chain of CRBN-DDB1 / GST-IRAK4 ternary complex (Q16531 whole entry partner, one chain of several): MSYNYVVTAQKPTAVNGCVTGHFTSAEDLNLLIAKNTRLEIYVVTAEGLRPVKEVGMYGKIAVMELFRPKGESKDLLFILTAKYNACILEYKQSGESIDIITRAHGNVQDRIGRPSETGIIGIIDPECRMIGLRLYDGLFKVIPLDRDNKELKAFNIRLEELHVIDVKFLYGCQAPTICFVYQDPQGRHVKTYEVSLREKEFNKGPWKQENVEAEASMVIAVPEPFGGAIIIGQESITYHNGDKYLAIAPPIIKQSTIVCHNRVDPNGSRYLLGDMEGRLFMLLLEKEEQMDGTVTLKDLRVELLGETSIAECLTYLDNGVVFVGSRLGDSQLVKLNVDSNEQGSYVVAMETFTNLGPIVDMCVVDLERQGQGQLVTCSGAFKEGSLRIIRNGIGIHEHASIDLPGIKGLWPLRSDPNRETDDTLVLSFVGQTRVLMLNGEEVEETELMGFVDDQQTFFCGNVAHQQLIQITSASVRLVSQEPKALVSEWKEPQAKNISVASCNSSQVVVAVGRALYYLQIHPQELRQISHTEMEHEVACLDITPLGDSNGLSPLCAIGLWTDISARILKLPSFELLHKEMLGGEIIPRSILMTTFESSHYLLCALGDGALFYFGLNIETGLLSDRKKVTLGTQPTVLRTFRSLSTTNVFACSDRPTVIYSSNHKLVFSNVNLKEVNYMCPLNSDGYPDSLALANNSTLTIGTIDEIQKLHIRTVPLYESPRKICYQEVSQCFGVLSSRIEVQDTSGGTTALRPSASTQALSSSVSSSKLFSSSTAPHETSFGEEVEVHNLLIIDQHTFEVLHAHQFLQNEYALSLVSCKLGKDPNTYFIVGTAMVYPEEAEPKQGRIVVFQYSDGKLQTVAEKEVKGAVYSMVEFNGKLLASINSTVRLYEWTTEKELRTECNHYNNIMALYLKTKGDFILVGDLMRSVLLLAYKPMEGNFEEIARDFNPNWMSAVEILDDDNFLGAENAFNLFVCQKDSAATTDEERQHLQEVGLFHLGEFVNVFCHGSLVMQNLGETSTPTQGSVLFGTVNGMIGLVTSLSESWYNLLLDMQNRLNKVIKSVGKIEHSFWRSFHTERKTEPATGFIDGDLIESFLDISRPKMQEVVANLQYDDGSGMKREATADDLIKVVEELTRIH
# Protocol: The assay mixture contains 100 nM CRBN-DDB1, 100 nM GST-IRAK4, 20 μg/mL Nickle Chelate Donor Bead (Perkin Elmer Catalog # AS101D) and 20 μg/mL GSH Acceptor Bead (Perkin Elmer Catalog # AL109C) in a buffer containing 50 mM HEPES, pH 7.5, 100 mM NaCl, 0.1% BSA, 2 mM TCEP, 0.05% Tween-20. […] AlphaLISA signals (Excitation 680 nm and emission 615 nm) were recorded on a Perkin Elmer EnVision 2104 Multilabel reader. The raw data was converted to the relative amount of ternary complex formation by normalization to the signal generated by His-tagged GST protein only. The final data points were plotted and the curves were fit using non-linear regression using GraphPad Prism software.
# IRAK4 [3] = target: T1, IRAK4; test: PBMC degradation assay (western blot, % IRAK4 degraded after 4 hours); format: cell-based; conditions: human PBMCs
# Protocol: Protocol summary of PBMC degradation studies from compound treatment through quantitation.
# PBMC culture medium: Human peripheral blood mononuclear cells (PBMCs): RPMI+10% FBS (Heat-inactivated)+1% P/S.
# Cells were cultured at a minimum of 2.5×10^6 c/mL. • PBMCs were incubated @ 37° C./5% CO2 and allowed to rest overnight. • Following overnight recovery, a cell count/viability assessment by trypan blue exclusion was performed. Cells densities were adjusted back to 2.5×10^6 c/mL (proceed with plating only if viability >80%). • In a 6 well plate, 2.0 mL of cells were added to each well for a minimum of 5×10^6 CT per treatment condition. Compounds dilutions were prepared from 20 mM stock and were added at a final 1000× dilution (0.1% DMSO concentration). • At the end of treatment, cells were harvested and spun @ 1800 rpm for 5 min. 1×PBS wash and spun again @ 1800 rpm for 5 min. Cell pellets were frozen and stored at −80° C. until further processing. • Lysates were generated by resuspending in lysis buffer. Protein quantification was performed with a BCA kit. • 20 μg of protein were loaded per lane and run on a 26-well 4-12% Bis-Tris SDS-page gel. • Transfers were performed on PVDF membranes using the BioRad Mixed MW turbo program for 7 min. • Membranes were blocked for one hour on a rocker at room temperature. • Primary antibodies were incubated overnight at 4° C. on a rocker. • Membranes were washed 3×TBST, 5 min each. • Secondaries were added and incubated for one hour on a rocker at room temperature. • Membranes were washed 3×TBST, 5 min each and rinsed well with deionized H2O. Membranes were scanned using the Licor Odessey CLx and bands were quantified using Image Studio Lite Version 5.2 software.
# PBMC results at 4 hours. The letter codes indicate the percentage of IRAK4 degraded after 4 hours: A (>50% degradation), B (>20-50% degradation) and C (<20% degradation)
SMILES,OCI-LY10 % IRAK4 Degradation (IRAK4 [1]),Average % Ternary Complex (N = 2) ([2]; compound concentration 1.00E−07 M),Average % Ternary Complex (N = 2) ([2]; compound concentration 1.25E−08 M),Average % Ternary Complex (N = 2) ([2]; compound concentration 1.28E−05 M),Average % Ternary Complex (N = 2) ([2]; compound concentration 1.60E−06 M),Average % Ternary Complex (N = 2) ([2]; compound concentration 2.00E−07 M),Average % Ternary Complex (N = 2) ([2]; compound concentration 2.50E−08 M),Average % Ternary Complex (N = 2) ([2]; compound concentration 3.20E−06 M),Average % Ternary Complex (N = 2) ([2]; compound concentration 4.00E−07 M),Average % Ternary Complex (N = 2) ([2]; compound concentration 5.00E−08 M),Average % Ternary Complex (N = 2) ([2]; compound concentration 6.25E−09 M),Average % Ternary Complex (N = 2) ([2]; compound concentration 6.40E−06 M),Average % Ternary Complex (N = 2) ([2]; compound concentration 8.00E−07 M),PBMC % IRAK4 Degradation (IRAK4 [3])
NC(=O)c1nn(-c2cccc(C(=O)NCCOCCOCCNc3cccc4c3C(=O)N(C3CCC(=O)NC3=O)C4=O)c2)cc1NC(=O)c1coc(-c2ccnc(NCC(F)(F)F)c2)n1 (centres unmarked) [I-135],B (>20-50% degradation),4.16%,0.76%,0.61%,0.67%,6.15%,1.05%,0.57%,4.22%,2.54%,0.55%,0.5%,1.25%,–
"O=C1CCC(N2C(=O)c3cccc(NCCOCCOCCNCc4cccc(-n5cc(NC(=O)c6coc(-c7ccnc(NCC8CC8)c7)n6)c(C(F)(F)F)n5)c4)c3C2=O)C(=O)N1 (centres unmarked) [I-186, 2-[2-(Cyclopropylmethylamino)-4-pyridyl]-N-[1-[3-[[2-[2-[2-[[2-(2,6-dioxo-3-piperidyl)-1,3-dioxo-isoindolin-4-yl]amino]ethoxy]ethoxy]ethylamino]methyl]phenyl]-3-(trifluoromethyl)pyrazol-4-yl]oxazole-4-carboxamide]",–,–,–,–,–,–,–,–,–,–,–,–,–,C (<20% degradation)
